Measured values published in US5112944A, “Cyclic tetrapeptide and process for preparing the same” (Shionogi & Co., Ltd., priority 1989, dated 1992).
Where a SMILES comes first, the peptide text is derived from it. [ ]: non-standard residue; d: D form. Aoe = N[C@@H](CCCCCC(=O)[C@@H]1CO1)C(=O)O; dPip = O=C(O)[C@H]1CCCCN1

Key:
[1] = test system: NIH3T3 cells transformed with sis oncogene; assay: Detransformation activity (return of transformed cells to normal flat morphology); format: cell-based
Procedure: (§1) The employed culture solution was prepared by adding 9.5 g of DALBECCO'S EAGLE MEM medium (made by NISSUI SEIYAKU CO., LTD.) and 20 ml of 7% sodium bicarbonate to 1 l of distilled water and then adding fetal bovine serum (made by Flow Laboratories, Inc., U.S.A.) to be 10% by volume at the final concentration.
(§2) To each well of a 12-well plastic dish made by Flow Laboratories, Inc., 2 ml of the above-mentioned culture solution, 2×10^4 cells/ml of NIH3T3 cells transformed with sis oncogene (provided by National Cancer Institute of the U.S.; Science, 218, 1131 (1982)) and each test compound (RF-1023-A or RF-1023-B) in each concentration (5 to 400 ng/ml) were added and cultured at 37° C. in 5% CO2 incubator. Twenty-four hours later the morphology of the cells was observed and detransformation activity (activity for inhibiting transformation of NIH3T3 cells transformed with the oncogene and returning to normal flat morphology of cells) was estimated. Two days after the incubation, cells subjected to the medium containing RF-1023-A were dispersed with 0.05% trypsin, and the cell number was measured by means of hemocytometer.

[2] = test system: NIH3T3 cells transformed with sis oncogene; assay: Cell number / cell proliferation of transformed cells (hemocytometer); format: cell-based; conditions: for Cell number: 2 days after the incubation; for Percentage of increase: 2 days, untreated = 100
Procedure: as §1, §2

[3] = 24 hours, lowest concentration tested

Row | Structure (SMILES) | Concentration at which detransformation activity is shown [1, 3] [ng/mL] | Concentration at which detransformation activity is shown ([1]; same experiment system) [ng/mL] | Cell number ([2]; 5 ng/ml test compound) | Percentage of increase ([2]; 5 ng/ml test compound) [%] | Cell number ([2]; 50 ng/ml test compound) | Percentage of increase ([2]; 50 ng/ml test compound) [%] | Cell number ([2]; 100 ng/ml test compound) | Percentage of increase ([2]; 100 ng/ml test compound) [%] | Cell number ([2]; 200 ng/ml test compound) | Percentage of increase ([2]; 200 ng/ml test compound) [%] | Cell number ([2]; 400 ng/ml test compound) | Percentage of increase ([2]; 400 ng/ml test compound) [%]
1 | O=C1N[C@@H](Cc2ccccc2)C(=O)N2CCC[C@@H]2C(=O)N[C@@H](CCCCCC(=O)[C@@H]2CO2)C(=O)N[C@H]1Cc1ccccc1 [RF-1023-B] (cyclo(FF[dP][Aoe])) | 5 |  |  |  |  |  |  |  |  |  |  | 
2 | CC(=O)NCCCCCCNC(C)=O [hexamethylene bisacetamide, reference compound] |  | 3e+06 |  |  |  |  |  |  |  |  |  | 
3 | O=C1N[C@@H](Cc2ccccc2)C(=O)N2CCCC[C@@H]2C(=O)N[C@@H](CCCCCC(=O)[C@@H]2CO2)C(=O)N[C@H]1Cc1ccccc1 [RF-1023-A] (cyclo([Aoe]FF[dPip])) | 5 |  | 3.8 × 10^5 | 35 | 3.4 × 10^5 | 29 | 1.5 × 10^5 | 0 | 1.1 × 10^5 | -6 | 1.1 × 10^5 | -6
